# Results from patent US5475029A, “Farnesyl compounds as cholesterol lowering agents” (The Board of Trustees of the Leland Stanford Junior …, priority 1993, dated 1995).
# What was measured:
# Format in all cases: cell-based
# total cellular protein [1] = assay: Total cellular protein degradation; details: 10 μg/ml
# Procedure: (§1) Measurement of HMGal and HMG-CoA Reductase Degradation Rates Cells grown in 60×15 mm dishes were washed once with ice-cold PBS and starved for 1 hour in 1 ml of methionine-free MEM supplemented with 5% LPS, 250 μg/ml of active geneticin, 10 μM compactin, and 0.1 mM mevalonate. These cells were radio-labeled for 2 hours in 300 μl of the methionine-free starvation medium containing 100 μCi of Tran^35 S-label (>1,000 Ci/mmol). Cells were incubated in an MEM-based chase medium containing 2 mM methionine, 5% LPS, 250 μg/ml of active geneticin, 10 μM compactin, and 0.1 mM mevalonate. During the chase period, some plates also had either 20 mM mevalonate, 10 μg/ml farnesyl acetate or 10 μg/ml ethyl farnesyl ether added to them as indicated in the figure legend. Following the chase, cells were washed, lysed and the HMGal and HMG-CoA reductase proteins were immunoprecipitated, subjected to SDS-PAGE and quantified.
# (§2) In order to test whether the farnesyl compounds impact degradation, the rates of degradation for HMGal, HMG-CoA reductase, and total cellular protein were measured in the presence and absence of 10 μg/ml farnesyl acetate and ethyl farnesyl ether.
# HMGal [2] = assay: HMGal activity (in vitro β-galactosidase specific activity) in CHO-HMGal cells
# Procedure: Cell Culture--All cells were grown as monolayers at 37° C. in an atmosphere of 5% CO2. CHO-HMGal cells were grown in minimal essential medium (MEM) supplemented with 0.25 mg/ml active geneticin and either 5% fetal calf serum (FCS) or 5% lipid-poor fetal calf serum (LPS).
# Stock Solutions--Stock solutions of farnesyl acetate, ethyl farnesyl ether, and the mixture of 25-hydroxycholesterol with cholesterol were all made in 100% ethanol at 100 times the final concentration. In all experiments in which these compounds were used, there is a final concentration of 1% ethanol in the medium. For control, cells grown with "no additives" or "mevalonate" 100% ethanol was added to the medium to bring the final concentration of ethanol to 1%. The mevalonate stock solution was prepared at a concentration of 2M in 20 mM potassium phosphate buffer (pH 4.5).
# (§3) β-galactosidase Specific Activity--In vitro β-galactosidase activity was measured using the substrate, o-nitrophenyl-β-D-galactopyranoside. Specific activities were calculated using protein concentration values.
# Farnesyl acetate and ethyl farnesyl ether stimulate a reduction in HMGal activity--In an attempt to identify tile non-sterol metabolite(s) that triggers the down regulation of HMG-CoA reductase, five commercially available isoprenoid compounds were tested for their effects on HMGal activity in CHO-HMGal cells. Each of tile compounds tested closely resembled one of tile naturally occurring isoprenoid pyrophosphates, except that the pyrophosphate group had been replaced by either a hydroxyl or an […] group. The compounds tested included: 3-methyl-2-buten-1-ol, the alcohol of the five carbon isoprenoid-dimethylallyl pyrophosphate (a naturally occurring isomer of isopentenyl pyrophosphate); geraniol and geranyl acetate, the alcohol and the […] of the ten carbon isoprenoid-geranyl pyrophosphate; and farnesol and farnesyl acetate, the alcohol and the […] of the fifteen carbon isoprenoid-farnesyl pyrophosphate.
# (§4) To confirm that the reduction in HMGal activity was the result of a regulatory function specifically targeting the membrane domain of HMGal, the effects of farnesyl acetate on β-galactosidase activity were measured in vitro for both CHO-HMGal cells and CHO-Gal cells. The CHO-Gal cells had been stably transfected with a construct identical to the HMGal construct (using the same vector, promoter, and 5' and 3' flanking regions) except that the construct in the CHO-Gal cells codes for a soluble β-galactosidase protein instead of the HMGal fusion protein with the membrane domain of HMG-CoA reductase. In this experiment, the CHO-Gal cells served to control for any artifacts farnesyl acetate might cause in the β-galactosidase assay or any nonspecific effects farnesyl acetate might have on the rates of protein synthesis or degradation.
# total cellular protein [3] = assay: Total cellular protein synthesis (TCA-precipitable counts); details: 10 μg/ml
# Procedure: (§5) Measurement of HMGal and HMG-CoA Reductase Synthesis Rates Cells plated into 60×15 mm dishes were grown in 5% LPS MEM with 0.25 mg/ml active geneticin for 24 hours. These cells were washed with PBS and grown for 24 hours in 5% LPS MEM supplemented with 0.25 mg/ml active geneticin, 10 μM compactin and 0.1 mM mevalonate. After 24 hours, the medium was removed, the cells were washed with PBS and the medium was replaced with methionine-free MEM supplemented with 5% LPS, 250 μg/ml of active geneticin, 10 μM compactin, and 0.1 mM mevalonate. In addition, 20 mM mevalonate or 10 μg/ml farnesyl acetate was included in those plates previously treated with these compounds. […] Cells were washed, lysed and the HMGal and HMG-CoA reductase proteins were immunoprecipitated, subjected to SDS-PAGE and quantified. […]
# (§6) Farnesyl compounds reduce translation and stimulate degradation of HMG-CoA reductase and HMGal A reduction in HMGal specific activity triggered by the farnesyl compounds could have been the result of a decrease in HMGal synthesis, an increase in HMGal degradation, or a combination of changes in both the synthesis and degradation rates. In order to test whether the farnesyl compounds impact synthesis, the rates of HMGal, HMG-CoA reductase, and total cellular protein synthesis were measured by [^35 S]methionine incorporation in the presence and absence of 10 μg/ml farnesyl acetate.
# HMG-CoA reductase = HMG-CoA reductase synthesis rate ([35S]methionine incorporation); details: 10 μg/ml
# Procedure: as §5, §6
# β-galactosidase = β-galactosidase activity in CHO-Gal control cells
# Procedure: as §3, §4
# HMGal [4] = assay: HMGal degradation rate (pulse-chase); details: 10 μg/ml during chase; untreated 6.4 hours
# Procedure: as §1, §2
structure (smiles),measurement,setting,value
CC(=O)OCC=C(C)CCC=C(C)CCC=C(C)C [farnesyl acetate],effect on the degradation of total cellular protein,total cellular protein [1],Neither farnesyl compound had a significant effect
same,reduction of HMGal activity,"HMGal [2]; 10 μg/ml, 24 hour treatment",70%
same,reduction of HMGal activity,HMGal [2]; 20 μg/ml,80%
same,reduction in HMGal activity at concentrations below the levels toxic to the cells,HMGal [2]; five isoprenoid compounds tested,stimulated a reduction in HMGal activity
same,effect on total protein synthesis (TCA-precipitable counts),total cellular protein [3],Neither farnesyl acetate nor mevalonate have a significant effect
same,reduction in the rate of HMG-CoA reductase synthesis,HMG-CoA reductase,60%
same,change of β-galactosidase activity of CHO-Gal cells,β-galactosidase; 10 μg/ml,not changed significantly
same,change of β-galactosidase activity of CHO-Gal cells,β-galactosidase; 20 μg/ml,essentially unchanged
same,half-life of HMGal,HMGal [4],3.9 h
same,reduction of the half-life of HMGal,HMGal [4],40%
